Format in all cases: in vivo
Test [1] relates to larvae of the Banded Cucumber Beetle (Diabrotica balteata). In words: Diabrotica balteata larvae test, soil application, corn. Conditions: 60 g ai/ha, mixed into soil, based on number of germinated corn plants. The protocol:
Diabrotica balteata Test/Larvae—Soil Application
(§1) To produce a suitable preparation of active compound, 1 part by weight of active compound is mixed with the stated amount of solvent and emulsifier, and the concentrate is diluted with emulsifier-containing water to the desired concentration. To produce a suitable preparation of a spore suspension the spores are diluted with emulsifier-containing water to the desired concentration.
The preparation containing the active ingredient is thoroughly mixed into the soil. […] The treated soil is filled into pots and sown with 5 corn seeds per pot. 3 days after sowing larvae of the Banded Cucumber Beetle (Diabrotica balteata) are placed in the soil.
After the desired period of time the level of activity expressed in % is determined. The level of activity is calculated on the basis of the number of corn plants which have successfully germinated. The efficacy values determined thus are recalculated using the Colby-formula.

Test [2] deals with mustard beetle larvae (Phaedon cochleariae). In words: Phaedon cochleariae larvae test, spray application on Chinese cabbage leaf discs. Conditions: foliar, 144 h, 100 g ai/ha, 6 d, read-out: Mortality in % after 6 d. The protocol:
Phaedon cochleariae Larvae—Spray Application
To produce a suitable preparation of active compound, 1 part by weight of active compound is mixed with the stated amount of solvent and emulsifier, and the concentrate is diluted with emulsifier-containing water to the desired concentration. To produce a suitable preparation of a biological suspension the cells, viruses or spores are diluted with emulsifier-containing water to the desired concentration.
Chinese cabbage (Brassica pekinesis) leaf—discs are sprayed with a preparation of the active ingredient of the desired concentration. Once dry, the leaf discs are infested with mustard beetle larvae (Phaedon cochleariae).
(§2) After the specified period of time, mortality in % is determined. 100% means that all the beetle larvae have been killed; 0% means that none of the beetle larvae have been killed. The mortality values thus determined are recalculated using the Colby-formula.

The subject of test [3] is Seeds of soybean (Glycine max). In words: Seed treatment, germination test soybean. As to conditions: 0.3 g ai/kg seeds (head: g ai/kg seeds). The method, then:
Seed Treatment—Germination Test Soybean
Seeds of soybean (Glycine max) were treated by being mixed with the desired amount of active compound and spores and water. After drying, 25 seeds were sown into each pot filled with sandy loam.
After 4 days the level of activity expressed in % was determined. The level of activity was calculated on the basis of the number of soybean plants which have successfully germinated.

The test system of test [4] is Green peach aphid (Myzus persicae). Kind of test: Myzus persicae test, spray application on Chinese cabbage leaf discs. Conditions: foliar, 24 h, 20 g ai/ha, 1 d, read-out: Mortality in % after 1 d. The protocol: Myzus persicae—Test (Spray Application)
(§3) To produce a suitable preparation of active compound, 1 part by weight of active compound is mixed with the stated amount of solvent and emulsifier, and the concentrate is diluted with emulsifier-containing water to the desired concentration. To produce a suitable preparation of a biological suspension the cells or spores are diluted with emulsifier-containing water to the desired concentration.
Chinese cabbage (Brassica pekinesis) leaf—discs infected with all instars of the green peach aphid (Myzus persicae), are sprayed with a preparation of the active ingredient at the desired concentration.
After the specified period of time mortality in % is determined. 100% means that all aphids have been killed; 0% means that none of the aphids have been killed.

For test [5] the test system is unchanged. Kind of test: Myzus persicae test, foliar application on infested cabbage leaves. Conditions: 144 h, 100 g ai/ha, foliar spray, 6 d, read-out: Mortality in % after 6 d. The protocol: Myzus persicae—Foliar Application
as §3
Cabbage leaves (Brassica oleracea) which are heavily infested by the Green peach aphid (Myzus persicae) are treated by being sprayed with the preparation of the active compound at the desired concentration.
After the specified period of time, mortality in % is determined. 100% means that all the aphids have been killed; 0% means that none of the aphids have been killed. The mortality values thus determined are recalculated using the Colby-formula.

Test [6] deals with larvae of the mustard beetle (Phaedon cochleariae). In words: Phaedon cochleariae larvae test, foliar application on cabbage leaves. Conditions: 48 h, 60 g ai/ha, foliar spray, 2 d, read-out: Mortality in % after 2 d. The protocol: Phaedon cochleariae Larvae—Foliar Application
as §1
Cabbage leaves (Brassica oleracea) are treated by being sprayed with the preparation of the active compound of the desired concentration and are infested with larvae of the mustard beetle (Phaedon cochleariae) as long as the leaves are still moist.
as §2

Regarding `O=C1C=C(N(Cc2ccc(Cl)nc2)CC(F)F)CO1` [Compound (I-3), 4-{[(6-Chloropyrid-3-yl)methyl](2,2-difluorethyl)amino}furan-2(5H)-one], the “Efficacy in % after 5 d” value in test [1] turned out to be 75%. The mortality at 100 g/ha in test [2] turned out to be 0%; in test [5], 90%. The “Germination in % related to untreated control, evaluation after 4 d” value in test [3] stood at 72.73%. Further, the mortality at 20 g/ha in test [4] stood at 0%. Also, in test [6], the mortality at 60 g/ha was 20%.

By mortality is commonly meant the percentage killed.

For the origin of these results see patent US9241493B2, “Use of an enaminocarbonyl compound in combination with a biological control agent” (BAYER INTELLECTUAL PROPERTY GMBH, priority 2011, dated 2016).
